Laboratory results: the NIST ThermoML archive (doi:10.1016/j.fluid.2017.06.018)

Columns and labels:
[1] = refractive index (Na D-line) (dimensionless); xn = mol fraction of the nth substance listed; details: 100 kPa, Liquid, Standard Abbe refractometry
[2] = xn = mol fraction of the nth substance listed; details: 100 kPa, Liquid; for viscosity: Falling or rolling sphere viscometry; for mass density: Vibrating tube method

NCCNCCN [di(2-aminoethyl)amine] + NCCO
Details | mass density, 298.15 K [kg/m3] | mass density, 303.15 K [kg/m3] | mass density, 308.15 K [kg/m3] | refractive index, 298.15 K | refractive index, 303.15 K | refractive index, 308.15 K | viscosity, 298.15 K [mPa·s] | viscosity, 303.15 K [mPa·s] | viscosity, 308.15 K [mPa·s]
[1], x2 = 0 | – | – | – | 1.4822 | 1.4808 | 1.4793 | – | – | –
[1], x2 = 0.0989 | – | – | – | 1.4815 | 1.4802 | 1.4791 | – | – | –
[1], x2 = 0.2021 | – | – | – | 1.4806 | 1.4791 | 1.4778 | – | – | –
[1], x2 = 0.3013 | – | – | – | 1.4794 | 1.4778 | 1.4765 | – | – | –
[1], x2 = 0.4007 | – | – | – | 1.4778 | 1.4764 | 1.4752 | – | – | –
[1], x2 = 0.4984 | – | – | – | 1.4758 | 1.4743 | 1.4729 | – | – | –
[1], x2 = 0.6007 | – | – | – | 1.4731 | 1.4717 | 1.4703 | – | – | –
[1], x2 = 0.7027 | – | – | – | 1.4696 | 1.4683 | 1.467 | – | – | –
[1], x2 = 0.8002 | – | – | – | 1.4657 | 1.4643 | 1.4631 | – | – | –
[1], x2 = 0.8987 | – | – | – | 1.4608 | 1.4591 | 1.4577 | – | – | –
[2], x2 = 0 | 945.8 | 942.1 | 937.8 | – | – | – | 5.63 | 4.5 | 3.85
[2], x2 = 0.1619 | 956.5 | 953.1 | 949.1 | – | – | – | 8.28 | 6.59 | 5.38
[2], x2 = 0.2973 | 964.6 | 961.1 | 957.1 | – | – | – | 10.37 | 8.33 | 6.68
[2], x2 = 0.4258 | 972.6 | 969 | 965.3 | – | – | – | 12.15 | 9.76 | 7.8
[2], x2 = 0.5307 | 979.4 | 975.9 | 972.3 | – | – | – | 13.87 | 11.18 | 8.89
[2], x2 = 0.6308 | 986.3 | 982.8 | 979.2 | – | – | – | 15.47 | 12.48 | 9.99
[2], x2 = 0.7174 | 992.7 | 989.2 | 985.6 | – | – | – | 16.82 | 13.6 | 10.89
[2], x2 = 0.798 | 998.7 | 995.5 | 992 | – | – | – | 18.22 | 14.73 | 11.84
[2], x2 = 0.879 | 1005.1 | 1001.7 | 998.5 | – | – | – | 19.23 | 15.49 | 12.42
[2], x2 = 0.9336 | 1008.9 | 1005.6 | 1002.4 | – | – | – | 19.31 | 15.49 | 12.34

NCCNCCO [N-(2-aminoethyl)ethanolamine] + NCCO
Details | mass density, 298.15 K [kg/m3] | mass density, 303.15 K [kg/m3] | mass density, 308.15 K [kg/m3] | refractive index, 298.15 K | refractive index, 303.15 K | refractive index, 308.15 K | viscosity, 298.15 K [mPa·s] | viscosity, 303.15 K [mPa·s] | viscosity, 308.15 K [mPa·s]
[1], x2 = 0 | – | – | – | 1.4843 | 1.4827 | 1.4811 | – | – | –
[1], x2 = 0.1005 | – | – | – | 1.4824 | 1.481 | 1.4796 | – | – | –
[1], x2 = 0.1993 | – | – | – | 1.4799 | 1.4785 | 1.4771 | – | – | –
[1], x2 = 0.299 | – | – | – | 1.4774 | 1.476 | 1.4745 | – | – | –
[1], x2 = 0.4047 | – | – | – | 1.4742 | 1.4728 | 1.4715 | – | – | –
[1], x2 = 0.5033 | – | – | – | 1.4714 | 1.47 | 1.4685 | – | – | –
[1], x2 = 0.5985 | – | – | – | 1.4683 | 1.4668 | 1.4652 | – | – | –
[1], x2 = 0.6981 | – | – | – | 1.4647 | 1.4633 | 1.462 | – | – | –
[1], x2 = 0.7985 | – | – | – | 1.4611 | 1.4598 | 1.4585 | – | – | –
[1], x2 = 0.8996 | – | – | – | 1.4573 | 1.4559 | 1.4545 | – | – | –
[2], x2 = 0 | 1025.8 | 1021.3 | 1016.3 | – | – | – | 98.62 | 70.57 | 53.11
[2], x2 = 0.1072 | 1025.7 | 1021.4 | 1016.6 | – | – | – | 95.09 | 69.25 | 52.77
[2], x2 = 0.2634 | 1025.2 | 1020.9 | 1016.2 | – | – | – | 90.58 | 67.59 | 52.68
[2], x2 = 0.4233 | 1024.4 | 1020.2 | 1015.7 | – | – | – | 78.29 | 59.5 | 46.92
[2], x2 = 0.5481 | 1023.4 | 1019.3 | 1014.9 | – | – | – | 64.72 | 48.92 | 38.49
[2], x2 = 0.6305 | 1022.5 | 1018.4 | 1014.1 | – | – | – | 53.12 | 39.84 | 31.01
[2], x2 = 0.6851 | 1021.7 | 1017.6 | 1013.4 | – | – | – | 44.75 | 32.81 | 25.15
[2], x2 = 0.7988 | 1019.4 | 1015.5 | 1011.4 | – | – | – | 27.93 | 20.04 | 14.71
[2], x2 = 0.8459 | 1018.2 | 1014.3 | 1010.3 | – | – | – | 22.36 | 15.94 | 11.31
[2], x2 = 0.9377 | 1015.2 | 1011.4 | 1007.5 | – | – | – | 17.18 | 12.82 | 9.55
